Test results reported in patent publication US20110245105A1, “Methods and Kits for Direct Detection and Susceptibility Profiling of Beta-Lactam Resistant Bacteria” (YISSUM RESEARCH DEVELOPMENT COMPANY OF THE HEBREW …, priority 2008, published 2011).

What was measured:
E. faecalis = assay: ART strip test on urine sample pellets; assay type: cell-based; details: 4 samples (r27)
Method: (§1) Filter paper (Whatman no. 3) strips impregnated with 50 mM potassium iodide and 10 mM iodine in 0.75% aqueous starch solution were divided into 6 test areas. Appropriate antibiotic substrates were prepared at a final concentration of 20 mg/mL. Each test area was impregnated with 30 μL of the appropriate solution. The strips were then dried in a lyophilizer and stored with a desiccant at 4° C.
(§2) One mL urine samples were spun 2 minutes at 3000 RPM in room temperature. Supernatants were removed and aliquots of the resulting pellets were streaked on standard slides.
(§3) The product of the enzymatic degradation of a beta-lactam antibiotic removes the iodine from the ART strip and causes local decolorization in that strip. Typically, a detection kit consists of two slides, as illustrated in FIG. 2. The bottom slide is streaked with the sample to be tested. The top slide (lid) carries the ART strip which is activated when each test area on the strip receives 25 μL of the activator solution consisting of 40 mg gelatin in 100 mL phosphate buffer pH 6.5. The test starts when the top slide carrying the freshly activated ART strip contacts the bottom slide carrying the sample. It may be carried out at ambient temperatures but will be accelerated by warming-up to 41° C. […] Result is confirmed if no decolorization took place in the absence of the bacteria (the background of that test area) or in the absence of the antibiotic (as in Test Area 2 in FIG. 1).
(§4) One mL urine sample pellets were collected as described in Example 1 and each streaked on a slide. The strip of the invention (termed ART for Antibiotics Resistance Test) was used to test for beta-lactamase and its ability to degrade Ceftazidime [Caz], Ceftriaxone [Cro], Cefuroxime [Cxm] and Ampicillin [Amp]. The strip, containing iodine and starch and divided to areas containing each of the abovementioned antibiotics, and attached to a plain slide, was activated as shown above, and placed on the streaked slide. After 5-15 minutes at 33° C.-38° C. the slide was scanned and recorded.

K. oxytoca = assay: ART strip test on urine sample pellets; assay type: cell-based
Method: as §1, §2, §3, §4

Staphylococcus sp. = assay: ART strip test on urine sample pellets; assay type: cell-based
Method: as §1, §2, §3, §4

K. pneumoniae [1] = assay: ART strip test on urine sample pellets; assay type: cell-based
Method: as §1, §2, §3, §4

Prot. mirabilis = assay: ART strip test on urine sample pellets; assay type: cell-based
Method: as §1, §2, §3, §4

Str. agalactiae = assay: ART strip test on urine sample pellets; assay type: cell-based; details: 3 samples (r34)
Method: as §1, §2, §3, §4

Citr. koseri = assay: ART strip test on urine sample pellets; assay type: cell-based; details: 2 samples (r25)
Method: as §1, §2, §3, §4

Acinetobacter sp. = assay: ART strip test on urine sample pellets; assay type: cell-based; details: 1 sample (r29)
Method: as §1, §2, §3, §4

Morg. morganii = assay: ART strip test on urine sample pellets; assay type: cell-based
Method: as §1, §2, §3, §4

E. coli [2] = assay: ART strip (Antibiotics Resistance Test), iodometric detection of beta-lactam hydrolysis by un-cultured urine sample pellets; assay type: cell-based
Method: as §1, §2, §3, §4

carbapenemase = assay: detection of carbapenemase activity in clinical urine samples; assay type: biochemical; details: urine pellet streak; 12 min at room temperature; 5.0-30 mg/mL substrate
Method: Activated ART strip impregnated with 30 μL of an aqueous solution of 30, […], 20, 15, 10 and 5.0 mg/mL imipenem (Ipm) or ertapenem (Etp) in positions 1, 2, 3, 4 and 5 on the strip, respectively, was placed in contact with a slide streaked with a urine pellet sample (Ipm+Sam. or Etp+Sam.), or an unstreaked slide (Ipm Cont. or Etp Cont.), […] reaction to appear. Abbreviations: Cont. (control), Etp. (ertapenem), Ipm. (imipenem), sam. (sample).
The product of the enzymatic degradation of a beta-lactam antibiotic removes the iodine from the ART strip and causes local decolorization in that strip. Typically, a detection kit consists of two slides, as illustrated in FIG. 2. The bottom slide is streaked with the sample to be tested. The top slide (lid) carries the ART strip which is activated when each test area on the strip receives 25 μL of the activator solution consisting of 40 mg gelatin in 100 mL phosphate buffer pH 6.5. The test starts when the top slide carrying the freshly activated ART strip contacts the bottom slide carrying the sample. […]
Urine samples were concentrated by a two minute centrifugation step at 3000 RPM and the resulting pellet was streaked on standard slides. […] As shown by the figure, the carbapenemase activity is easily detected using this method, even in samples containing low concentrations of antibiotic substrates.

[3] = tested on: carbapenem-resistant Enterobacteriaceae; assay: modular kit for detection of CRE in urine sample; assay type: cell-based; details: CRE-containing urine sample; as part of augmentin
Method: The kit constructed as a twin-slide [as illustrated by FIG. 1] carries an “OCTET” strip impregnated [as in Example 1] with an array of eight beta-lactam antibiotics and 1 non-beta-lactam control [S].
To illustrate the life-saving potential of the proposed technology which eliminates delays in diagnosis of carbapenem-resistant members of the Enterobacteriaceae family (CRE), a CRE sample was analyzed using the invention's modular kit, containing ampicillin, ceftazidime, augmentin, cefotaxime, imipenem, cefuroxime, meropenem and ceftriaxone as beta-lactamase substrates and a non-beta-lactam antibiotic, served as a negative control.
Filter paper segments were glued to a slide, each segment impregnated with a single antibiotic of the abovementioned antibiotics and streaked with carbapenem-resistant Enterobacteriaceae-containing urine sample pellets, prepared as described in Examples 1 to 3. The slide was contacted with indicator strips attached to a slide.

K. pneumoniae [4] = assay: modular antibiotic resistance detection kit on urine sample pellets; assay type: cell-based; details: K. pneumoniae, profile r20
Method: (§5) A modular antibiotic resistance detection kit offers more flexibility in testing different resistance profiles. In the modular detection kit exemplified here, the ART strip is replaced by filter paper segments glued to a slide, each segment impregnated with a single antibiotic.
(§6) Specifically, pathogen samples were tested using filter papers impregnated with the following beta-lactam antibiotics: ampicillin [Amp], augmentin (a combination of amoxicillin and clavulanic acid) [AMC], clavulanic acid (Reduced Resistance test) [RR], ceftazidime [Caz] and either imipenem or meropenem [CPM]. The impregnation details of the fragments were as in the previous Examples.
(§7) Filter paper (Whatman no. 3] strips impregnated with Assay Reagent solution were used as “indicator strips”. An indicator strip was attached to the plain top slide as shown in FIG. 2. Aliquots of the pellets of the urine samples tested were placed on each of the segments. The test was started by placing the activated indicator-strip-slide, on the modular antibiotic slide. The scan results obtained after 5-10 min at 38° C. are illustrated schematically in FIG. 2 where all segments, except for the negative (no antibiotic) control, show decolorization indicating resistance to each antibiotic in that array.
(§8) Samples resistant to ceftazidime but affected by clavulanic acid were assumed to contain extended spectrum beta lactamases (ESBLs). The ‘Confirmed’ detections column summarizes the number of CLP-validated results out of the total findings recorded.

E. coli [5] = assay: as above; assay type: cell-based; details: E. coli, profile r12
Method: as §5, §6, §7, §8

Citrobacter freundii = assay: as above; assay type: cell-based; details: profile r23
Method: as §5, §6, §7, §8

`CO/N=C(\C(=O)N[C@@H]1C(=O)N2C(C(=O)O)=C(COC(N)=O)CS[C@H]12)c1ccco1` [Cxm, Cefuroxime] was tested, and the “resistance profile predicted by ART” value (E. faecalis) was “S[nd]”, the “resistance profile predicted by ART” value (K. oxytoca; 1 sample (r15)) was “R” and the “resistance profile predicted by ART” value (K. oxytoca; 3 samples (r14)) was “S”. For the same molecule, the “resistance profile predicted by ART” value (Staphylococcus sp.; 1 sample (r31)) was “S”, the “resistance profile predicted by ART” value (Staphylococcus sp.; 1 sample (r32)) was “S” and the “resistance profile predicted by ART” value (K. pneumoniae [1]; 1 sample (r12)) was “R”. For the same molecule, the “resistance profile predicted by ART” value (K. pneumoniae [1]; 8 samples (r11)) was “S”, the “resistance profile predicted by ART” value (K. pneumoniae [1]; 11 samples (r10), MDR) was “R” and the “resistance profile predicted by ART” value (Prot. mirabilis; 1 sample (r18)) was “R”. The “resistance profile predicted by ART” value (Prot. mirabilis; 1 sample (r19)) was “R”, the “resistance profile predicted by ART” value (Prot. mirabilis; 1 sample (r20)) was “R” and the “resistance profile predicted by ART” value (Prot. mirabilis; 6 samples (r17)) was “S”. For the same molecule, the “resistance profile predicted by ART” value (Str. agalactiae) was “S[nd]”, the “resistance profile predicted by ART” value (Citr. koseri) was “S” and the “resistance profile predicted by ART” value (Acinetobacter sp.) was “S”. The “resistance profile predicted by ART” value (Morg. morganii; 1 sample (r22)) was “S”, the “resistance profile predicted by ART” value (Morg. morganii; 1 sample (r23)) was “R” and the “resistance profile predicted by ART” value (E. coli [2]; 3 samples (r8), MDR) was “R”. The “resistance profile predicted by ART” value (E. coli [2]; 12 samples (r7)) was “S” and the “resistance profile predicted by ART” value (E. coli [2]; 28 samples (r6), 5-15 minutes at 33° C.-38° C.) was “S”.
In the case of `C[C@@H](O)[C@H]1C(=O)N2C(C(=O)O)=C(S[C@@H]3CN[C@H](C(=O)Nc4cccc(C(=O)O)c4)C3)[C@H](C)[C@H]12` [Ert, ertapenem], the “hydrolysis by carbapenemase in the sample (decolorization of strip)” value (carbapenemase) is reported as “hydrolyzing”.
In the case of `O=C(O)[C@H]1/C(=C/CO)O[C@@H]2CC(=O)N21` [RR, clavulanic acid], the protection from hydrolysis [3] is reported as “no protection from hydrolysis”, the “Effect of clavulanic acid (Reduced Resistance)” value (“Effect … (Reduced Resistance)” below) (K. pneumoniae [4]) is reported as “N” and the “Effect … (Reduced Resistance)” value (E. coli [5]) is reported as “N”. The “Effect … (Reduced Resistance)” value (Citrobacter freundii) was “N”.
